Patent US20030130200A1, “Small peptides and methods for treatment of asthma and inflammation” (Hisatek, LLC, priority 1997, published 2003)
Where no end group is shown, it is not given here. The star is where a group is joined. For = O=C*

Tested on: type II collagen arthritis
Assay: Induced type II collagen arthritis mouse model
Assay type: in vivo, mouse (DBA/1 male)
Conditions: HK-X TC or footpad, 0.4 or 4 mg/kg for 20 days; x-ray and histology
Description: A mouse model is used to evaluate the effect of the compounds of the present invention on the histological, radiographic and clinical appearance of induced type II collagen arthritis. Mice: DBA/1(2) male mice weighing 25 gms (Jackson Laboratories, Bar Harbor, Me. or B&K Universal, Kent Wash.) are used for this work. This strain of mouse is susceptible to CIA by the injection of heterologous type II collagen. Bovine Collagen (BC), Complete Freund's Adjuvant (CFA) and Incomplete Freund's Adjuvant (ICFA) can be obtained from Sigma Chemical. Antigen for immunization is processed in 0.1 M acetic acid and formulated with CFA or ICFA. […] The degree of cellularity and areas of inflammation are quantified by using digitization of histological photomicrographs and applying standard area and point counting techniques as described above. […] The average area of soft tissue (pannus) of the joint is determined by analysis of computer digitized radiographs, along with changes in density of the adjacent hard tissues by comparison with internal standards included with each radiograph. […] The significance of the differences in density and area for control and experimental mice is assessed using paired T-tests at each time point. […] Swelling of hind paws is also quantitated by measuring the thickness of the ankle from the medial to the lateral malledus with a constant tension caliper. […]

For “f-Met-Leu-Phe-Phe (For-MLFF) [Example 9]”, the Degree of arthritis was “reduce the degree of arthritis”.
